Experimental data: patent US20050232896A1, “Cd137 as a proliferation factor for hematopoietic stem cells” (priority 2001, published 2005)

Assays:
Bone marrow cells = assay: In vivo reconstitution after Alkeran, bone marrow composition; design: species or system NMRI mice; conditions: Alkeran experiment, day 21, average of three mice
Procedure: (§1) In the next experiment NMRI mice were treated with Alkeran, a cytotoxic drug regularly used for human cancer therapy. Alkeran was given i.p. on days 1, 3 and 5. Mice received 100 μg of CD137-Fc immobilized on protein A or equivalent amounts of immobilized Fc control protein. Three mice were used per group. The relative composition of the bone marrow cells (Table 3) and the absolute number of cells in the peripheral blood (Table 4) were determined after 21 days.

[1] = system: cells in the peripheral blood; assay: In vivo reconstitution after Alkeran, absolute cell numbers in peripheral blood; design: species or system NMRI mice; conditions: after 21 days, average of three mice
Procedure: as §1

[2] = system: myeloid lineage, human CD34+ progenitors; assay: CELISA lineage assay, myeloid lineage (CD11b); assay type: cell-based; conditions: growth factors present
Procedure: (§2) The effects of CD137 on the different hematopoietic lineages were evaluated using a cell based immunoassay, which quantifies expression of lineage-specific markers (CELISA, BioWhittaker, Walkersville, Md., USA).
(§3) Progenitors for the myeloid and erythroid lineages were normal human CD34+ cells, which had been isolated from the bone marrow of healthy volunteers by positive selection using the “Direct CD34 Progenitor Kit” (Miltenyi, Bergisch Gladbach, Germany). Progenitors for the megakaryocyte lineage were normal human CD34+ cells, which had been isolated from the peripheral blood of healthy G-CSF-treated volunteers.
96-well polystyrene plates were precoated with four dilutions of CD137-Fc or Fc control protein at 4° C. overnight or with the dilution buffer PBS. […]
In this example, the influence of growth factor concentrations and potential additive or synergistic effects of these growth factors with CD137 were analysed in more detail. […]
Differentiation was assessed per CELISA (BioWhittaker), measuring the expression of the myeloid-specific protein CD11b. Proliferation was determined using the ViaLight system (BioWhittaker), which measures the amount of ATP in the culture. […]

[3] = system: erythroid lineage, human CD34+ progenitors; assay: CELISA lineage assay, erythroid lineage (glycophorin A); assay type: cell-based; conditions: growth factors present
Procedure: as §2, §3
(§4) 96-well polystyrene plates were precoated with four dilutions of CD137-Fc or Fc control protein at 4° C. overnight or with the dilution buffer PBS. The following additional controls were included in the experiment: no addition; Camptothecin, a cytotoxic compound, at 0.005 μM (condition 1) and at 0.5 μM (condition 2); stem Cell Factor (SCF) at a concentration of 125 ng/ml. […]

[4] = system: megakaryocyte lineage, human CD34+ progenitors; assay: CELISA lineage assay, megakaryocyte lineage (CD41a); assay type: cell-based; conditions: growth factors present
Procedure: as §2, §3, §4

[5] = system: bone marrow cell population; assay: In vivo reconstitution of the hematopoietic system, protein A damage, bone marrow composition; design: species or system NMRI mice; conditions: day 21, average of three mice
Source text: CD137 needs to be immobilized onto a carrier or crosslinked to be functional according to the invention. Protein A was chosen as a carrier for in vivo studies, as it has been effective in crosslinking CD137-Fc in the experiment described in Example 3. CD137-Fc or Fc control protein were immobilized on protein A and injected into NMRI mice. Besides immobilizing CD137-Fe or Fc, protein A has the additional effect of being toxic for cells of the hematopoietic system. This latter activity of protein A exerts a damaging effect on the hematopoietic system of mice as does chemotherapy.
Three mice per group were used. Each mouse received 100 μg of immobilized CD137-Fc or an equimolar amount of immobilized Fc or protein A alone. Mice were killed after 3 weeks and the bone marrow was isolated from the femurs and analysed (Table 2).

N[C@@H](Cc1ccc(N(CCCl)CCCl)cc1)C(=O)O [Alkeran]
R1 (Bone marrow cells): 60.21 Percentage of total cells
R3 (Bone marrow cells): 0.66 Percentage of total cells
R4 (Bone marrow cells): 2.28 Percentage of total cells
Total number of leukocytes in the peripheral blood [1]: 830 per μl
Total number of thrombocytes in the peripheral blood [1]: 581.000 per μl

CC[C@@]1(O)C(=O)OCc2c1cc1n(c2=O)Cc2cc3ccccc3nc2-1 [Camptothecin]
growth inhibition, myeloid lineage ([2]; 0.005 uM): minimal growth inhibition
growth inhibition, myeloid lineage ([2]; 0.05 uM): inhibited growth to a greater extent
growth inhibition, erythroid lineage ([3]; 0.005 uM): minimal growth inhibition
growth inhibition, erythroid lineage ([3]; 0.05 uM): inhibited growth to a greater extent
growth inhibition, megakaryocyte lineage ([4]; 0.005 uM): minimal growth inhibition
growth inhibition, megakaryocyte lineage ([4]; 0.05 uM): inhibited growth to a greater extent

Protein A: carrier for crosslinking CD137-Fc; toxic for cells of the hematopoietic system
R1 (91% erythroid) [5]: 69.18 Percentage of total cells
R3 (49% undifferentiated blasts, 25% lymphoblasts, 18% basophil erythroblasts) [5]: 1.81 Percentage of total cells
R4 (50% undifferentiated blasts, 30% myeloid mainly und. precursors, 20% erythroid) [5]: 1.97 Percentage of total cells
R5 (91% granulocytes) [5]: 1.12 Percentage of total cells
R6 (74% monocytes, 20% myeloid precursors) [5]: 0.63 Percentage of total cells
R5 (91% granulocytes) ([5]; listed as protein A): reduced drastically
R6 (74% monocytes, 20% myeloid precursors) ([5]; listed as protein A): reduced drastically
